According to patent US20090100532A1, “TRANSGENIC MICE EXPRESSING HYPERSENSITIVE NICOTINIC RECEPTORS” (CALIFORNIA INSTITUTE OF TECHNOLOGY, priority 2007, published 2009):
Several values for one entry are separate records, joined by “and”; a condition that tells them apart may be missing. Equal values may be shown once.

Assays:
[1] = biological target: hypersensitive nicotinic receptors in α6L9′S VTA DA neurons (Mus musculus, UniProt Q9ERK7+Q9R0W9, L280S); type: cell-based
[2] = tested on: substantia nigra DA and GABA neurons
LC neurons (α6* nAChRs) = type: cell-based, mouse
WT and α6^L9′S mice = conditions: mouse, in vivo
α6^L9′S mice = conditions: mouse, in vivo
Experimental: Locomotor Activity. Mice used to study locomotion were eight to sixteen weeks old by the beginning of an experiment, and were back-crossed to C57BL/6 at least three times. […] Mouse horizontal locomotor activity was measured with an infrared photobeam activity cage system (San Diego Instruments; San Diego, Calif.). Ambulation events were recorded when two contiguous photobeams were broken in succession. Acute locomotor activity in response to nicotinic ligands or other agents was studied by recording ambulation events during four 15 sec intervals per minute for a designated number of minutes. For most experiments, groups of eight mice were placed in the activity cages (18×28 cm) and their baseline level of activity was recorded for eight minutes. Mice were removed from their cage, injected (100 μl per 25 g body mass), and returned to the cage within 15 sec. […] For generation of locomotor activity concentration-response relationship profiles, a group of mice was administered saline and, after five to eight days off, each successive dose of drug. […] For 48 h home cage monitoring, mice were isolated in their own cage and habituated to the test room and cage for 24 h. Following this, locomotor activity was recorded in 15 min intervals for 48 h.

α4β2* nAChRs = α4β2* nAChRs (Mus musculus, UniProt O70174+Q9ERK7)
Experimental: (§1) Neurotransmitter Release from Striatal Synaptosomes. After a mouse was sacrificed by cervical dislocation, its brain was removed and placed immediately on an ice-cold platform and brain regions were dissected. Tissues from each mouse were homogenized in 0.5 ml of ice-cold 0.32 M sucrose buffered with 5 mM HEPES, pH 7.5. A crude synaptosomal pellet was prepared by centrifugation at 12,000 g for 20 min. The pellets were resuspended in “uptake buffer”: 128 mM NaCl, 2.4 mM KCl, 3.2 mM CaCl2, 1.2 mM KH2PO4, 1.2 mM MgSO4, 25 mM HEPES, pH 7.5, 10 mM glucose. For DA uptake, buffer was supplemented with 1 mM ascorbic acid and 0.01 mM pargyline, whereas for GABA uptake, buffer was supplemented with 1 mM aminooxyacetic acid. For [^3H]GABA uptake, synaptosomes were incubated for 10 min at 37° C. […] For DA uptake, synaptosomes were incubated at 37° C. in uptake buffer for 10 min before addition of 100 nM [^3H]dopamine (1 μCi for every 0.2 ml of synaptosomes), and the suspension was incubated for an additional 5 min.
(§2) All experiments were conducted at room temperature using methods described previously (Nashmi et al., 2007; Salminen et al., 2007) with modifications for collection into 96-well plates. In brief, aliquots of synaptosomes (80 μl) were distributed onto filters and perfused with buffer (uptake buffer containing 0.1% bovine serum albumin and 1 μM atropine with 1 μM nomifensine (for DA release) or 0.1 μM NNC-711 [1-(2-(((diphenylmethylene)amino)oxy)ethyl)-1,2,5,6-tetrahydro-3-pyridinecarboxylic acid hydrochloride]) (for GABA release) at 0.7 ml/min for 10 min, or buffer for 5 min followed by buffer with 50 nM αCtxMII. […] Fractions (−0.1 ml) were collected for 4 min into 96-well plates every 10 sec starting from 1 min before stimulation, using a Gilson FC204 fraction collector with a multicolumn adapter (Gilson, Inc.; Middleton, Wis.). Radioactivity was determined by scintillation counting using a 1450 MicroBeta Trilux scintillation counter (Perkin Elmer Life Sciences-Wallac Oy; Turku, Finland) after addition of 0.15 ml Optiphase ‘SuperMix’ scintillation cocktail. Instrument efficiency was 40%.
(§3) Data were analyzed using SigmaPlot 5.0 for DOS. Perfusion data were plotted as counts per minute versus fraction number. Fractions collected before and after the peak were used to calculate baseline as a single exponential decay. The calculated baseline was subtracted from the experimental data. Fractions that exceeded baseline by 10% or more were sunmmed to give total released cpm and then normalized to baseline to give units of release [(cpm-baseline)/baseline]. Agonist dose response data were fit to the Hill equation.

nAChRs [3] = biological target: nAChRs (Mus musculus, UniProt O70174+Q9ERK7)
Experimental: as §1, §2, §3

α6* nAChRs [4] = tested on: α6* nAChRs
Experimental: as §1, §2, §3

[5] = tested on: αCtxMII-sensitive receptors (α6*)
α6* nAChRs [6] = biological target: T1, α6* nAChRs (Mus musculus, UniProt Q9ERK7+Q9R0W9, L280S); test: biochemical; type: biochemical
T1 construct: from tissue
Experimental: as §1, §2, §3

α6* nAChRs [7] = biological target: T2, α6* nAChRs (Mus musculus, UniProt Q9ERK7+Q9R0W9); test: biochemical; type: biochemical
T2 construct: from tissue
Experimental: as §1, §2, §3

α4β2* (non-α6) nAChRs = biological target: T3, α4β2* (non-α6) nAChRs (Mus musculus, UniProt O70174+Q9ERK7); test: biochemical; type: biochemical
T3 construct: from tissue; host or cells: striatal / olfactory tubercle synaptosomes of WT and α6L9′S mice
Experimental: as §1, §2, §3

[8] = in vivo; cited from earlier work
[9] = biological target: αCtxMII-resistant receptors (Mus musculus, UniProt O70174+Q9ERK7)
nAChRs [10] = type: biochemical, mouse
Experimental: as §1, §2, §3

[11] = in vivo; cited from earlier work; remark: listed apart in the source
α3β4β3 receptors = biological target: T4, α3β4β3 receptors (UniProt P12392+P32297); test: Two-electrode voltage clamp, X. laevis oocytes, α3β4β3; type: cell-based
T4 construct: expressed in transfected cells; host or cells: Xenopus laevis oocytes injected with cRNA
Experimental: (§4) Two-Electrode Voltage-Clamp Electrophysiology. Stage V to VI X. laevis oocytes were isolated as described previously (Quick and Lester, Ion Channels of Excitable Cells, Narahashi T ed., pp 261-279, 1994). Stock RNAs were diluted into diethyl pyrocarbonatetreated water and injected 1 day after isolation. RNA was injected in a final volume of 50 nl per oocyte using a digital microdispenser (Drummond Scientific, Broomall, Pa.). After injection, oocytes were incubated in ND-96 solution (96 mM NaCl, 2 mM KCl, 1 mM CaCl2, 1 mM MgCl2, and 5 mM HEPES/NaOH, pH 7.6) supplemented with 50 μg/ml gentamicin and 2.5 mM sodium pyruvate. After 1 to 4 days for nAChR expression, oocytes were used for recording or confocal microscopy.
(§5) Agonist-activated nicotinic receptor responses were measured by two-electrode voltage-clamp recording using a GeneClamp 500 (Molecular Devices, Sunnyvale, Calif.) voltage clamp. Electrodes were constructed from Kwik-Fil borosilicate glass capillary tubes (1B150F-4; WPI, Sarasota, Fla.) using a programmable microelectrode puller (P-87; Sutter Instrument Company, Novato, Calif.). The electrodes had tip resistances of 0.8 to 2.0 MΩ after filling with 3 M KCl. […]

α4Yβ2 receptors = type: cell-based, mouse
α3β4 receptors = biological target: T5, α3β4 receptors (UniProt P12392+P32297); test: Two-electrode voltage clamp, X. laevis oocytes, α3β4; type: cell-based
T5 construct: expressed in transfected cells; host or cells: Xenopus laevis oocytes injected with cRNA
Experimental: as §4, §5

[12] = tested on: striatal (ST and OT combined) synaptosomes
Experimental: as §1, §2, §3

Chain of α4β2* nAChRs (Q9ERK7 26-501): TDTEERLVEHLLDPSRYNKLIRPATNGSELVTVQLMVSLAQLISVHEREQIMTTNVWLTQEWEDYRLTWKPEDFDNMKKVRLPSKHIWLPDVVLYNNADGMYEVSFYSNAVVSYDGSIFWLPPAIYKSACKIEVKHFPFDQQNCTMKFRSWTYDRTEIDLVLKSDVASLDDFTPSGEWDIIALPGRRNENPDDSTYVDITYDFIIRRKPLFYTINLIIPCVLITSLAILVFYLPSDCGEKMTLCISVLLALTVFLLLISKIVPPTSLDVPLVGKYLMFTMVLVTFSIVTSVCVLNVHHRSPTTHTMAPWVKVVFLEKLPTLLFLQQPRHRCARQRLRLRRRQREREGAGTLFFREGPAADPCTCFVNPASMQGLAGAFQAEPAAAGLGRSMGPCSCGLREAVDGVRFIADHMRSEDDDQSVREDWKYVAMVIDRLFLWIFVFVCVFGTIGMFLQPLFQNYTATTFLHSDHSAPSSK
Chain of α4β2* nAChRs (O70174 31-629): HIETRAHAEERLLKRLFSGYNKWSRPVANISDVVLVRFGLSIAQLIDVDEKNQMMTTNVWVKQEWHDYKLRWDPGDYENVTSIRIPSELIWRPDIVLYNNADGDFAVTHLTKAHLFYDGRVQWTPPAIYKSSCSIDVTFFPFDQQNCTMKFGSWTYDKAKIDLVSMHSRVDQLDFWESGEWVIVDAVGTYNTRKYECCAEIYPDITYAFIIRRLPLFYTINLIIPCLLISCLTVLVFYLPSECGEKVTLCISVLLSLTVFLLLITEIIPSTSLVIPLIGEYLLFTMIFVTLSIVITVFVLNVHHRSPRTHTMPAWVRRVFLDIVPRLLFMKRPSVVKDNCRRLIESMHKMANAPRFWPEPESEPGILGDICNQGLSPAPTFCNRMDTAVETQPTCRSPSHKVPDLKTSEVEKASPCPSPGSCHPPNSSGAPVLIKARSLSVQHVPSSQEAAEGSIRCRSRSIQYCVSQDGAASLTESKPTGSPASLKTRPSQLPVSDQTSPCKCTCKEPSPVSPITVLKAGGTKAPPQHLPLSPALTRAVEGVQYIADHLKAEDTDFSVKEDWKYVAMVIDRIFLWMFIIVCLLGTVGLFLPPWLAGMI
Chain of nAChRs (Mus musculus, UniProt O70174+Q9ERK7) (Q9ERK7 26-501): as the sequence (Q9ERK7 26-501) above
Chain of nAChRs (Mus musculus, UniProt O70174+Q9ERK7) (O70174 31-629): as the sequence (O70174 31-629) above
T3 sequence (Q9ERK7 26-501): as the sequence (Q9ERK7 26-501) above
T3 sequence (O70174 31-629): as the sequence (O70174 31-629) above
T1 sequence (Q9ERK7 26-501, stated change not applied): as the sequence (Q9ERK7 26-501) above
T1 sequence (Q8BMN3 31-464, further chain): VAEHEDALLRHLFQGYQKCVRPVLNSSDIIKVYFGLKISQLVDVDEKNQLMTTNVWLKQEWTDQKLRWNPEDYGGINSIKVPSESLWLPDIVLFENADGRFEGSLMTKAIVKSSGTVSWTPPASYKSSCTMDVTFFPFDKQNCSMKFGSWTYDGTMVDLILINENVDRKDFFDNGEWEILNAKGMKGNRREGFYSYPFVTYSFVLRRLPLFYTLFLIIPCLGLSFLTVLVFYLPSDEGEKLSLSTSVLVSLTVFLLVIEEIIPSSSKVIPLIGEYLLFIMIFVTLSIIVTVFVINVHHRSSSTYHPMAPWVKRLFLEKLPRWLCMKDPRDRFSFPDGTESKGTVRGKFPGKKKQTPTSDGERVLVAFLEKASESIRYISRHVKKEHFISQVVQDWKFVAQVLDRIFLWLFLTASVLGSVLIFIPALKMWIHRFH
T1 sequence (Q9R0W9 31-494 L280S): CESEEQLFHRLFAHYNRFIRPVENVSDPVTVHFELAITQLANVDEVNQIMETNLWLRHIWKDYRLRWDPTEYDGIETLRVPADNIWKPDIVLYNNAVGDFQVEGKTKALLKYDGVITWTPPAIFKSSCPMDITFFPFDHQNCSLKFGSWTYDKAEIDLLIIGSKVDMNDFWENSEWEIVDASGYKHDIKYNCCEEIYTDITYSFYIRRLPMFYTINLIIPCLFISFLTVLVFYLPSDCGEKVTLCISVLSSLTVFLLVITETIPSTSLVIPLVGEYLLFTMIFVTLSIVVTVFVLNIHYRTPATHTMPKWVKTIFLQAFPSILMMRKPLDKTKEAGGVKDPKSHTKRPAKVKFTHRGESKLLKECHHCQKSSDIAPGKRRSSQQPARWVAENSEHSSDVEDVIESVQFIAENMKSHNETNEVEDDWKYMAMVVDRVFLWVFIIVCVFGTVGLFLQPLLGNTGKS
T2 sequence (Q9R0W9 31-494): as the sequence (Q9R0W9 31-494 L280S) above, with S250L counted along it
T2 sequence (Q8BMN3 31-464, further chain): as the sequence (Q8BMN3 31-464, further chain) above
T2 sequence (Q9ERK7 26-501): as the sequence (Q9ERK7 26-501) above
Chain of hypersensitive nicotinic receptors in α6L9′S VTA DA neurons (Q9ERK7 whole entry, looked up, stated change not applied): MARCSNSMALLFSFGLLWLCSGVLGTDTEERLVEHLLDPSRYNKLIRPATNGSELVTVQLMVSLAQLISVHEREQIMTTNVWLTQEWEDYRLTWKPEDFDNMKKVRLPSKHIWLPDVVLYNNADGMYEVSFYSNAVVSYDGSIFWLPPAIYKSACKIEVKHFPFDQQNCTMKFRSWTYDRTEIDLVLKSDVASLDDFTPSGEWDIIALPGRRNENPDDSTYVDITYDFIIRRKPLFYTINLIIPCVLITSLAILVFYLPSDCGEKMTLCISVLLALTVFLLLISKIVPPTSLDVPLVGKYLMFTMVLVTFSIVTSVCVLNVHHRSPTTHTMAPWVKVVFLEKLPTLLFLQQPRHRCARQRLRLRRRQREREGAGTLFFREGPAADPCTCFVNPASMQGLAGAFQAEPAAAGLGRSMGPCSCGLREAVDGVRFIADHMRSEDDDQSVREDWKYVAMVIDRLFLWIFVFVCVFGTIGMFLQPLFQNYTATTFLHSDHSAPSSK
Chain of hypersensitive nicotinic receptors in α6L9′S VTA DA neurons (Q9R0W9 whole entry, looked up, stated change not applied): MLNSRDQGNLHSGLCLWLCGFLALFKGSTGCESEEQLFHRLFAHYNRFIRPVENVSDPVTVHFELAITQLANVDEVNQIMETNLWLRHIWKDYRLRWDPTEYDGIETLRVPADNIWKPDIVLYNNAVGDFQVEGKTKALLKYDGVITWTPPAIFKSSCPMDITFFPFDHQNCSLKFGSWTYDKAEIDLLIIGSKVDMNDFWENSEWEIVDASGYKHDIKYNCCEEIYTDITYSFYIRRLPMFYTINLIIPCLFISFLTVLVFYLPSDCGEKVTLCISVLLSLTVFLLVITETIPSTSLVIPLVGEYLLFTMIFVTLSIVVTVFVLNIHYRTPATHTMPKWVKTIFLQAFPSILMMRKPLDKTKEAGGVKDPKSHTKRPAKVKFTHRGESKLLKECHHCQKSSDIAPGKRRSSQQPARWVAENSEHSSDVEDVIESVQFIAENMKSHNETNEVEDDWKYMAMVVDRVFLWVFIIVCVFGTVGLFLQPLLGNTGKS
Chain of αCtxMII-resistant receptors (O70174 31-629, change not shown): as the sequence (O70174 31-629) above
Chain of αCtxMII-resistant receptors (Q9ERK7 26-501, change not shown): as the sequence (Q9ERK7 26-501) above
T4 sequence (P32297 32-505): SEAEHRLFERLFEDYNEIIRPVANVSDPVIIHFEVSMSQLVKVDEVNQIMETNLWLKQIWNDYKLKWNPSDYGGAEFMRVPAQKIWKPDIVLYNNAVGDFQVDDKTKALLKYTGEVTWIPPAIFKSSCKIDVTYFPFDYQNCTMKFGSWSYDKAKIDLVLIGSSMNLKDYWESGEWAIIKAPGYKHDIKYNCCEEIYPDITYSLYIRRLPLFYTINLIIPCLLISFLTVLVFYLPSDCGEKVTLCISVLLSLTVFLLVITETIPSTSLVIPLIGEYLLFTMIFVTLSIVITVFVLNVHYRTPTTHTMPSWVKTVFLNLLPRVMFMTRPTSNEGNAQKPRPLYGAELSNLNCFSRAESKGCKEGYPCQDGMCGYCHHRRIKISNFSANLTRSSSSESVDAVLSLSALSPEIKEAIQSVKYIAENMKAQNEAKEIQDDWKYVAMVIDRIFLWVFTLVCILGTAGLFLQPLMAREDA
T4 sequence (P12392 21-495): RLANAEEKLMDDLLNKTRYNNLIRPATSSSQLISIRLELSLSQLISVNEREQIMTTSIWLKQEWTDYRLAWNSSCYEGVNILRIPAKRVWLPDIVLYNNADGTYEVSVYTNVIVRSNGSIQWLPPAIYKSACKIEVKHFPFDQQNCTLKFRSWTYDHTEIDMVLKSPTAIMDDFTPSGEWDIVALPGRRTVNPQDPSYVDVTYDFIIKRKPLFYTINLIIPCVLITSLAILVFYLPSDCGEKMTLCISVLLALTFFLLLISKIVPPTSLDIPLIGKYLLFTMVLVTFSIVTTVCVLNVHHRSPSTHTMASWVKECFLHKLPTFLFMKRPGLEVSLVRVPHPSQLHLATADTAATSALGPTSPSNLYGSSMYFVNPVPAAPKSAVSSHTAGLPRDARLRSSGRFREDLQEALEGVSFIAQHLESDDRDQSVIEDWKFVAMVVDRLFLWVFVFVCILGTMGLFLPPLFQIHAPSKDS
T4 sequence (Q8BMN3 31-464 partner): as the sequence (Q8BMN3 31-464, further chain) above
T5 sequence (P32297 32-505): as the sequence (P32297 32-505) above
T5 sequence (P12392 21-495): as the sequence (P12392 21-495) above

CN1CCCC1c1cccnc1 (single isomer, unassigned) [nicotine]
firing rate in response to local application (VTA DA neurons): significant increase in the firing rate | inward currents elicited by puffs of 1 μM [1]: larger than those seen in WT neurons at any concentration | average responses (peak current) in GABA neurons [2]: < 10 pA | responses in WT DA and GABA neurons [2]: undetectable | responses to locally applied nicotine in LC neurons (LC neurons (α6* nAChRs)): larger responses | hypothermia response, WT versus α6^L9′S mice (WT and α6^L9′S mice): No difference was found | tolerance or sensitization: change in locomotor behavior after repeated injections (α6^L9′S mice): did not produce any change in locomotor behavior | Rmax (±SEM), MII-resistant GABA release (α4β2* nAChRs): 1.40 ± 0.08 and 1.26 ± 0.08 and 1.30 ± 0.10 | Rmax (±SEM), Total GABA release (nAChRs [3]): 1.64 ± 0.32 and 1.25 ± 0.06 and 1.22 ± 0.11 | EC50 (±SEM), MII-sensitive GABA release (α6* nAChRs [4]): no activity | Rmax (±SEM), MII-sensitive GABA release (α6* nAChRs [4]): no activity | αCtxMII-sensitive 86Rb+ efflux [5]: hypersensitive to nicotine relative to WT | MII-sensitive DA release by 10 μM nic (positive control) (α6* nAChRs [6]): 8.53 and 5.97 and 10.77 and 10.39 | MII-sensitive DA release by 10 μM nic (positive control) (α6* nAChRs [7]): 3.19 and 1.63 | Rmax (±SEM), MII-sensitive DA release (α6* nAChRs [7]): 5.41 ± 0.54 and 7.03 ± 0.86 | MII-resistant DA release by 10 μM nic (positive control) (α4β2* (non-α6) nAChRs): 14.55 and 8.75 and 10.78 and 15.07 and 8.91 and 10.26 | elimination half life [8]: ~7 min | αCtxMII-resistant 86Rb+ efflux [9]: unchanged | Rmax (±SEM), Total DA release (nAChRs [10]): 33.1 ± 2.1 and 36.0 ± 1.3 and 34.3 ± 1.7 and 20.9 ± 1.0 and 21.4 ± 0.9 and 20.8 ± 1.2 | Total DA release by 10 μM nic (positive control) (nAChRs [10]): 16.69 and 19.68 and 20.65 and 17.70 and 17.30 and 16.70 | concentration in the cerebrospinal fluid of smokers [11]: ≤ 500 nM

CC(=O)OCC[N+](C)(C)C [ACh, acetylcholine]
EC50 (α3β4β3 receptors): 230 ± 22 µM | voltage-clamped responses (α4Yβ2 receptors): 200-400 pA | EC50 (α3β4 receptors): 165 ± 9 µM

[K+] [K^+]
GABA release stimulated by 20 mM K^+ [12]: 8.31 ± 0.34 and 8.24 ± 0.45 and 8.43 ± 0.50
